Reference: patent publication EP0377044B1, “PROTECTIVE AGENT FOR RADIATION HAZARD” (MITSUI TOATSU CHEMICALS, Inc., priority 1988, dated 1989)
Square brackets hold non-standard residues; d marks the D form. Peptide text beside a SMILES is read from it. pGlu = O=C1CC[C@@H](C(=O)O)N1

How the values were obtained:
[1] = tested on: radiation-induced cancers in mice; assay: Development of radiation-induced cancers in irradiated mice; type: in vivo; details: administration over a certain period
Wister rats = assay: Toxicity test, repeated subcutaneous administration to rats; type: in vivo
Source text: (§1) Thus, the medicament of the present invention is a safe medicament of extremely low toxicity and can be administered for a long period of time.

mice = assay: Whole body X-irradiation, % survival over thirty days (general description); type: in vivo
Procedure: The effect of the radioprotective agent of the present invention is confirmed by the experiments as described below. Thus, mice, rats, guinea pigs or the like mammals were subjected to whole body irradiation, using a X-radiation unit (Shimazu Seisaku-sho, Shin-Ai 250 II), to determine % survival over a period of thirty days. In carrying out these experiments, given amounts of the nonapeptide were administered by different routes of administration, such as intraperitoneal, intravenous, intramuscular, subcutaneous or oral route of administration, either every day or every other day over a given period of time from before or from immediately after the irradiation, to measure the body-weight of the animals and observe whether they were alive or dead.

[2] = Body weight measurement of 600R-irradiated mice; type: in vivo; details: for body weight (g) [Mean ± S.D.]: 600R X-ray, 100 µg/day s.c. pre-administration
Procedure: (§2) In the same manner as in Experimental Examples 1 and 2, mice were irradiated with X-rays for 6 minutes. For a period of consecutive 14 days from 2 days before irradiation, the animals were subcutaneously administered, once a day, with 100 µg/day of FTS·CH₃COOH·2H₂O as medicament.
The body weight of each experimental group of mice in Experimental Example 3 was measured on consecutive days for observation of changes in weight.

[3] = tested on: mice irradiated with 800R X-rays; assay: Survival of mice after whole body irradiation with 800R X-rays; type: in vivo, C3H/He mice; details: for The number of days and survivals after X-radiation 10 (days) / The number of days and survivals after X-radiation 11 (days) / The number of days and survivals after X-radiation 12 (days) / The number of days and survivals after X-radiation 13 (days) / The number of days and survivals after X-radiation 14 (days) / The number of days and survivals after X-radiation 15 (days) / The number of days and survivals after X-radiation 16 (days) / The number of days and survivals after X-radiation 17 (days) / The number of days and survivals after X-radiation 18 (days) / The number of days and survivals after X-radiation 19 (days) / The number of days and survivals after X-radiation 20 (days) / The number of days and survivals after X-radiation 25 (days) / The number of days and survivals after X-radiation 30 (days): 14 days; for The number of days and survivals after X-radiation 10 (days): day 10, 15 animals used; for The number of days and survivals after X-radiation 11 (days): day 11, 15 animals used; for The number of days and survivals after X-radiation 12 (days): day 12, 15 animals used; for The number of days and survivals after X-radiation 13 (days): day 13, 15 animals used; for The number of days and survivals after X-radiation 14 (days): day 14, 15 animals used; for The number of days and survivals after X-radiation 15 (days): day 15, 15 animals used; for The number of days and survivals after X-radiation 16 (days): day 16, 15 animals used; for The number of days and survivals after X-radiation 17 (days): day 17, 15 animals used; for The number of days and survivals after X-radiation 18 (days): day 18, 15 animals used; for The number of days and survivals after X-radiation 19 (days): day 19, 15 animals used; for The number of days and survivals after X-radiation 20 (days): day 20, 15 animals used; for The number of days and survivals after X-radiation 25 (days): day 25, 15 animals used; for The number of days and survivals after X-radiation 30 (days): day 30, 15 animals used
Procedure: (§3) Male, 10 week-old C3H/He mice were used and groups of 10 - 15 animals each were prepared.
(§4) The mice were subjected to whole body irradiation for 8 minutes using a X-radiation unit (manufactured by Shimazu Seisaku-sho, Shin-Ai 250 II). These animals received, once per day, subcutaneous administration of 100 µg of FTS·CH₃COOH·2H₂O as used in Example 1 for consecutive 14 days. For a pre-administered group, the administration started two days before the irradiation. For a post-administered group, the first administration was effected immediately after the irradiation. As control groups, one group which received only once subcutaneous administration of 1 KE of Picibanil immediately after the irradiation and another group which received every day administration of physiological saline were prepared.

[4] = tested on: mice irradiated with 600R X-rays; assay: Survival of mice after whole body irradiation with 600R X-rays; type: in vivo
Procedure: as §3, §4, §2

cancer-carrying mice = assay: Radiotherapeutic experiments on cancer-carrying mice; type: in vivo; details: pre- or post-irradiation administration
[5] = tested on: animals subjected to whole body irradiation with lethal or sub-lethal doses; assay: Recovery of hematopoietic dysfunctions and immune responses after whole body irradiation (general description); type: in vivo
Procedure: On the other hand, animals were subjected to whole body irradiation with lethal or sub-lethal doses and changes with the lapse of time in the number of blood cells were measured for given periods of time in order to check the medicament for the promotive effect on the recovery of hematopoietic dysfunctions. Blood cells used as index included red blood cells, reticulocytes, white blood cells such as lymphocytes and neutrophils, platelets, hemoglobins, hematocrit and the like. […] Thus, as is evident from these observations, the medicament of the present invention is believed to act on hematopoietic organs, e.g. bone marrow and spleen, and exert the life span-extending or life-saving effect due to its inhibitory or recovery-promoting effect on hematopoietic dysfunctions, and it is therefore valuable as a preventive and therapeutic agent against radiation damages.

ddy male mice = assay: Toxicity test, repeated subcutaneous administration to mice; type: in vivo; details: for toxicity: five ddy male mice of 5 weeks old
Source text: as §1

[6] = post-administration 100 µg s.c. once per day, from immediately after irradiation
[7] = pre-administration 100 µg s.c. once per day, from two days before irradiation

Compound: C[C@H](NC(=O)[C@@H]1CCC(=O)N1)C(=O)N[C@@H](CCCCN)C(=O)N[C@@H](CO)C(=O)N[C@@H](CCC(N)=O)C(=O)NCC(=O)NCC(=O)N[C@@H](CO)C(=O)N[C@@H](CC(N)=O)C(=O)O [medicament, pGlu-Ala-Lys-Ser-Gln-Gly-Gly-Ser-Asn] ([pGlu]AKSQGGSN-OH)
- development of radiation-induced cancers [1]: inhibits the development of radiation-induced cancers in mice
- toxicity (external behavior observation, biochemical diagnosis of sera, pathological anatomy) (Wister rats; 30 mg/kg subcutaneously every day for consecutive 21 days, rats): no abnormal symptom was found in external behavior observation and biochemical diagnosis of sera and in a result of pathological anatomy
- toxicity (Wister rats; 30 mg/kg subcutaneously for consecutive 21 days, ten Wister rats of 5 weeks old): No toxicity was observed
- inhibition of body-weight loss (mice; compared with the control group): significant inhibition of body-weight loss
- % survival (mice; over a period of thirty days, depending on the dose of radiation, all mice in control group died): 40 - 100%
- life span-extending effect (mice; versus control group): significant or marked life span-extending effect
- body weight (g) [Mean ± S.D.] ([2]; 1 day after irradiation): 27.8±1.5 (15) g
- body weight (g) [Mean ± S.D.] ([2]; 3 days after irradiation): 27.7±1.1 (15) g
- body weight (g) [Mean ± S.D.] ([2]; 5 days after irradiation): 27.9±1.1 (15) g
- body weight (g) [Mean ± S.D.] ([2]; 7 days after irradiation): 28.8±1.2 (10) g
- body weight (g) [Mean ± S.D.] ([2]; 9 days after irradiation): 29.8±1.0 (10) g
- body weight (g) [Mean ± S.D.] ([2]; 11 days after irradiation): 30.2±0.9 (10) g
- body weight (g) [Mean ± S.D.] ([2]; 13 days after irradiation): 29.6±0.7 (10) g
- body weight (g) [Mean ± S.D.] ([2]; 15 days after irradiation): 28.3±0.8 (10) g
- body weight (g) [Mean ± S.D.] ([2]; 17 days after irradiation): 28.2±1.0 (10) g
- body weight (g) [Mean ± S.D.] ([2]; 19 days after irradiation): 29.1±0.8 (10) g
- body weight (g) [Mean ± S.D.] ([2]; 29 days after irradiation): 28.5±1.4 (10) g
- body weight versus control group ([2]; 600R X-rays, summary of Table 5): evidently weighed more than the control group
- dying of mice due to irradiation ([3]; 100 µg s.c. once per day for 14 days, summary of Table 1): clearly prevents or inhibits the dying of mice due to irradiation
- The number of days and survivals after X-radiation 10 (days) [3, 6]: 15
- The number of days and survivals after X-radiation 11 (days) [3, 6]: 15
- The number of days and survivals after X-radiation 12 (days) [3, 6]: 15
- The number of days and survivals after X-radiation 13 (days) [3, 6]: 14
- The number of days and survivals after X-radiation 14 (days) [3, 6]: 13
- The number of days and survivals after X-radiation 15 (days) [3, 6]: 10
- The number of days and survivals after X-radiation 16 (days) [3, 6]: 8
- The number of days and survivals after X-radiation 17 (days) [3, 6]: 6
- The number of days and survivals after X-radiation 18 (days) [3, 6]: 6
- The number of days and survivals after X-radiation 19 (days) [3, 6]: 6
- The number of days and survivals after X-radiation 20 (days) [3, 6]: 6
- The number of days and survivals after X-radiation 25 (days) [3, 6]: 5
- The number of days and survivals after X-radiation 30 (days) [3, 6]: 5
- The number of days and survivals after X-radiation 10 (days) [3, 7]: 15
- The number of days and survivals after X-radiation 11 (days) [3, 7]: 15
- The number of days and survivals after X-radiation 12 (days) [3, 7]: 15
- The number of days and survivals after X-radiation 13 (days) [3, 7]: 15
- The number of days and survivals after X-radiation 14 (days) [3, 7]: 15
- The number of days and survivals after X-radiation 15 (days) [3, 7]: 14
- The number of days and survivals after X-radiation 16 (days) [3, 7]: 13
- The number of days and survivals after X-radiation 17 (days) [3, 7]: 11
- The number of days and survivals after X-radiation 18 (days) [3, 7]: 11
- The number of days and survivals after X-radiation 19 (days) [3, 7]: 11
- The number of days and survivals after X-radiation 20 (days) [3, 7]: 9
- The number of days and survivals after X-radiation 25 (days) [3, 7]: 9
- The number of days and survivals after X-radiation 30 (days) [3, 7]: 9
- animals survived ([4]; in 19 days, 100 µg/day s.c. 14 days from 2 days before irradiation, control four out of ten): ten out of ten
- The number of days and survivals after X-radiation 8 (days) ([4]; pre-administration 100 µg/day s.c., 14 days from 2 days before irradiation, day 8, 10 animals used): 10
- The number of days and survivals after X-radiation 9 (days) ([4]; pre-administration 100 µg/day s.c., 14 days from 2 days before irradiation, day 9, 10 animals used): 10
- The number of days and survivals after X-radiation 10 (days) ([4]; pre-administration 100 µg/day s.c., 14 days from 2 days before irradiation, day 10, 10 animals used): 10
- The number of days and survivals after X-radiation 11 (days) ([4]; pre-administration 100 µg/day s.c., 14 days from 2 days before irradiation, day 11, 10 animals used): 10
- The number of days and survivals after X-radiation 12 (days) ([4]; pre-administration 100 µg/day s.c., 14 days from 2 days before irradiation, day 12, 10 animals used): 10
- The number of days and survivals after X-radiation 13 (days) ([4]; pre-administration 100 µg/day s.c., 14 days from 2 days before irradiation, day 13, 10 animals used): 10
- The number of days and survivals after X-radiation 14 (days) ([4]; pre-administration 100 µg/day s.c., 14 days from 2 days before irradiation, day 14, 10 animals used): 10
- The number of days and survivals after X-radiation 15 (days) ([4]; pre-administration 100 µg/day s.c., 14 days from 2 days before irradiation, day 15, 10 animals used): 10
- The number of days and survivals after X-radiation 16 (days) ([4]; pre-administration 100 µg/day s.c., 14 days from 2 days before irradiation, day 16, 10 animals used): 10
- The number of days and survivals after X-radiation 17 (days) ([4]; pre-administration 100 µg/day s.c., 14 days from 2 days before irradiation, day 17, 10 animals used): 10
- The number of days and survivals after X-radiation 18 (days) ([4]; pre-administration 100 µg/day s.c., 14 days from 2 days before irradiation, day 18, 10 animals used): 10
- The number of days and survivals after X-radiation 19 (days) ([4]; pre-administration 100 µg/day s.c., 14 days from 2 days before irradiation, day 19, 10 animals used): 10
- The number of days and survivals after X-radiation 30 (days) ([4]; pre-administration 100 µg/day s.c., 14 days from 2 days before irradiation, day 30, 10 animals used): 10
- anti-cancer effect of radiotherapy (cancer-carrying mice): potentiated
- immune responses of immunocytes (spleen cells response to Con A, thymus cells reactivity to IL-1) ([5]; irradiated animals, examined every day, versus control group): apparently higher than those for the control group
- immunocytes capabilities of humoral factor production (IL-1 by peritoneal macrophage, CSF by spleen cells and peritoneal macrophage) ([5]; irradiated animals, versus control group): superior to the control group
- reduction of blood cells due to irradiation ([5]; whole body irradiation with lethal or sub-lethal doses, red blood cells, reticulocytes, white blood cells, platelets, hemoglobins, hematocrit): markedly inhibited
- toxicity (ddy male mice; 50 mg/kg subcutaneously for consecutive 14 days): No toxicity was observed
- toxicity (external check) (ddy male mice; 100 mg/kg subcutaneously every day for consecutive 14 days, mice): no abnormal symptom was found by external check
- toxicity (ddy male mice; 100 mg/kg subcutaneously for consecutive 14 days): No toxicity was observed
